# Paper PMC8541353, “A Novel Phenylpyrrolidine Derivative: Synthesis and Effect on Cognitive Functions in Rats with Experimental Ishemic Stroke” (Molecules, 2021)
# Experiments:
# Format in all cases: in vivo, Wistar rats
# rats with MCAO [1] = experiment: Neurological deficit (mNSS) in MCAO model; details: 24 h to day 7
# Method: A MCAO animal model was used to characterize the effects of compound 1 on the development and resolution of stroke. At the baseline, we performed the MRI and hole-board test before MCAO surgery. Once animals recovered after the surgery, we stratified them based on their background psycho-emotional status and performed a control MRI to access whether the occlusion was sufficient or not. […] From 24 h to day 7, the neurological status was assessed daily according to the neurological scale (mNSS). By the end of day 7, animals underwent MRI. In addition, MRI was performed on days 14 and 28 (Shceme 3)The hole-board test was repeated on days 10 and 24. The degree of motor function impairment, the deficit of exploratory behavior, and the recovery process were assessed in the beam walking test (BWT), which was performed twice on days 12 and 14. An open field test was carried out on days 16 and 26. […]
# In the first experimental series, the following test systems were used: HBT (OpenScience, Russia), OFT (OpenScience), and LDT (OpenScience). […] All rat behavioral changes were evaluated during the four weeks after stroke simulation. […] General neurological disorders were assessed using the modified neurological severity score (mNSS). Motor and cognitive impairment were evaluated using the following functional tests: BWT (OpenScience), HBT (OpenScience), and OFT (OpenScience). […]
# rats with MCAO [2] = experiment: Cerebral infarct volume by MRI in transient MCAO model; details: for Infarct volume at 24 h: 24 h after MCAO, before treatment (group baseline); for Infarct volume by day 28: day 28 after MCAO, compound 1 125 mg kg^−1, piracetam 300 mg kg^−1 daily from 24 h to day 5, p = 0.17
# Method: A MCAO animal model was used to characterize the effects of compound 1 on the development and resolution of stroke. At the baseline, we performed the MRI and hole-board test before MCAO surgery. Once animals recovered after the surgery, we stratified them based on their background psycho-emotional status and performed a control MRI to access whether the occlusion was sufficient or not. […] From 24 h to day 7, the neurological status was assessed daily according to the neurological scale (mNSS). By the end of day 7, animals underwent MRI. In addition, MRI was performed on days 14 and 28 (Shceme 3)The hole-board test was repeated on days 10 and 24. The degree of motor function impairment, the deficit of exploratory behavior, and the recovery process were assessed in the beam walking test (BWT), which was performed twice on days 12 and 14. An open field test was carried out on days 16 and 26.
# (§1) Before conducting the experiments, the animals underwent the HBT and were allocated to groups based on their behavior score and weight. Kullback–Leibler divergence method for allocation based on two numerical parameters was used for allocation. We used a sum score for behavior tests and weight. Subsequently, two experimental series were performed. In the first series, rat behavior without stroke modeling after injection of compound 1 (experimental group, n = 10) or saline (control group, n = 10) was evaluated (Scheme 3a). […] Compound 1 was injected at a dose of 125 mg kg^−1 and an injection volume of 0.5 mL. […] For the experiments, the following predetermined exclusion criteria were used: (1) incomplete MCAO indicated by an incomplete lesion on magnetic resonance imaging (MRI) after 24 h [n = 4]and (2) post-operative weight loss of > 20% and severe animal condition within the first post-stroke 48 h [n = 3]. Animals reached humane endpoints based on the absence of nociceptive reflex withdrawal responses, hypothermia, and heart rate reduction to 100–150 beats min^−1. As steroid treatment could have influenced the experiment, rats were humanely euthanized according to the ethical protocol. The experiment design is presented in Scheme 3b.
# The rats were anesthetized initially using 3% isoflurane and maintained with a mixture of 2–2.5% isoflurane and 97.5–98% atmospheric air (EZ-7000 Classic System, E-Z Anesthesia® Systems). […]
# During the procedure, the rats were maintained under inhalation anesthesia as mentioned above. […] The volume of the hyperintensity ischemic stroke area was calculated by summing the areas of adjacent cross-sections using the following formula: Volume = (S1 + … + Sn) × (h + d), where S1, …, Sn are areas measured in n slices, h is the slice thickness, and d is the interval between slices.
# intact animals = experiment: Open field test (OFT) in intact animals; details: intact rats, day 7; compound 1 125 mg kg^−1, piracetam 300 mg kg^−1, intraperitoneally for 5 days; mean and SD
# Excerpt: Before the study, the intact animals were subjected to the hole-board test (HBT), weighed, and stratified into three uniform groups in terms of orientational/exploratory activity and weight. […] On day 7, we performed OFT (open field test), followed by LDB (light—dark box test) on day 8 (Scheme 3, Step 1). These tests assess the activity and describe the behavior of the animals. According to OFT, compound 1 decreased the vertical activity and the immobility time compared to the saline-treated group (Table 2).
# as §1
# In the first experimental series, the following test systems were used: HBT (OpenScience, Russia), OFT (OpenScience), and LDT (OpenScience). The design for the second experimental series was as follows. All rat behavioral changes were evaluated during the four weeks after stroke simulation. Individuals who performed these procedures were double-blinded. General neurological disorders were assessed using the modified neurological severity score (mNSS). Motor and cognitive impairment were evaluated using the following functional tests: BWT (OpenScience), HBT (OpenScience), and OFT (OpenScience). The BWT was performed between postoperative days 12 and 14. In this test, motor dysfunction in all four limbs was evaluated; specifically, the number of steps, errors, and slides were counted. The overall score was calculated using the following formula: score = errors + 0.5 × slides × 100/total number of steps [47]. The beam apparatus consists of 165 cm beams with a flat surface of 10 mm or 6 mm width, resting 100 cm above the table top on two poles. A black box is placed at the end of the beam as the finish point. Nesting material from home cages is placed in the black box to attract the rat to the finish point. A lamp (with 60-watt light bulb) is used at the start to stimulate the animals to move towards the end.
# rats with MCAO [3] = experiment: Survival within 28 days after MCAO (Kaplan-Meier, log-rank); details: 28 days after first administration, log-rank test
# Method: All statistical analyses were performed using the IBM® SPSS® Statistics Version 23.0 and R software Version 3.3.2 (R Foundation for Statistical Computing, Vienna, Austria). For normally distributed quantitative continuous variables, the mean and standard deviation (SD) values were calculated and presented as descriptive statistics. For ordinal variables, median and 25- and 75-percentiles were calculated. For qualitative variables, the absolute count and percentage value for each category were calculated. For quantitative variables, the normality of distribution was verified using frequency histograms and Kolmogorov–Smirnov test. A two-tailed p-value < 0.05 was considered statistically significant. To compare changes in structure displacement, lesion size, and neurological scale, a general linear repeated measures model with a group as a fixed factor was used. One-way multivariate analysis of variance was used in the analysis of behavior. Experimental groups were designed to have an equal sample size (8 vs. 8 rats) based on sample size calculations for the independent sample t-test using Statistica 10 software (type I error 0.05, type II error 0.20). Animal survival was estimated by the Kaplan–Meier method using the log-rank test.
smiles,measurement,setting,value
"O=C(CN1CC(c2ccccc2)CC1=O)NCCS(=O)(=O)[O-].[K+] (stereo not drawn) [Compound 1, potassium 2-[2-(2-oxo-4-phenylpyrrolidin-1-yl)acetamido]ethane-1-sulfonate]",Regression of neurological symptoms,rats with MCAO [1],35%
same,Infarct volume at 24 h,rats with MCAO [2],133.6 ± 24.1 mm^3
same,Infarct volume by day 28,rats with MCAO [2],91.2 ± 18.9 mm^3
same,Crossings (n),intact animals,53.7 ± 10.3 n
same,Grooming time,intact animals,40.6 ± 33.2 s
same,Immobility duration,intact animals,12.8 ± 8.4 s
same,Number of center sector crossings (center) (n),intact animals,1.6 ± 0.6 n
same,Vertical activity (n),intact animals,10.3 ± 4.3 n
same,Survival of animals vs other groups,rats with MCAO [3],no significant differences
"NC(=O)CN1CCCC1=O [Piracetam, reference compound]",Regression of neurological symptoms,rats with MCAO [1],25%
same,Infarct volume at 24 h,rats with MCAO [2],128.5 ± 15.5 mm^3
same,Infarct volume by day 28,rats with MCAO [2],86.0 ± 13.5 mm^3
same,Crossings (n),intact animals,65.4 ± 20.4 n
same,Grooming time,intact animals,14.4 ± 9.4 s
same,Immobility duration,intact animals,16.0 ± 10.4 s
same,Number of center sector crossings (center) (n),intact animals,1.4 ± 1.2 n
same,Vertical activity (n),intact animals,15.9 ± 7.5 n
same,Survival of animals vs other groups,rats with MCAO [3],no significant differences
